Results as given in patent US8003400B2, “Measurement of vitamin D” (Roche Diagnostics Operations, Inc., priority 2006, dated 2011).

Biological target: T1, vitamin D binding protein (Homo sapiens, UniProt P02774)
T1 sequence (P02774 17-474): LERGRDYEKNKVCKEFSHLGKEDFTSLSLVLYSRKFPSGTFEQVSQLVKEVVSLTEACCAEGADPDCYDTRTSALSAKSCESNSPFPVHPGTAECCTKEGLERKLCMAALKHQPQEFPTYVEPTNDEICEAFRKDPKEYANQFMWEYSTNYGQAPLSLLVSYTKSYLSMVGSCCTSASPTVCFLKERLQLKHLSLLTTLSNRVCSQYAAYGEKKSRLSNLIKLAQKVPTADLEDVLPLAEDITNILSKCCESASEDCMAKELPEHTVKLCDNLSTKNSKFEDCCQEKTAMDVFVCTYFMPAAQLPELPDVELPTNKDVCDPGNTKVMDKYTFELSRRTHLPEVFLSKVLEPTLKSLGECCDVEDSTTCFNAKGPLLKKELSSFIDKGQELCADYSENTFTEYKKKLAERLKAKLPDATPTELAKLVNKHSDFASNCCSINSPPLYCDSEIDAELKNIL
Experiment: BIACORE assessment of release of vitamin D binding protein from immobilised biotinylated 25-hydroxyvitamin D3
Details: BIACORE streptavidin chip saturated with biotinylated 25-hydroxyvitamin D3 and vitamin D binding protein; release monitored for 3 min
Source text: For this assessment a streptavidin-coated BIACORE chip is used. This streptavidin-chip is then saturated with a biotinylated 25-hydroxyvitamin D3 and thereafter with vitamin D binding protein. […] The BIACORE system is used to assess whether a reagent considered to be a potential candidate for releasing vitamin D from vitamin D binding protein will be efficient in releasing of vitamin D binding protein to a vitamin D metabolite. A sensor chip coated with streptavidin (Sensor Chip SA, BIACORE AB, BR-1000-32) is used for immobilization of a biotinylated vitamin D metabolite of interest. The assessment is best performed by use of the vitamin D metabolite 25OH vitamin D3. The sensor chip is first incubated with a saturating concentration of biotinylated 25-hydroxyvitamin D3, Then the chip is loaded with a saturating amount of vitamin D binding protein. Then the vitamin D binding protein saturated chip is incubated with a sodium chloride solution one the one hand and a candidate vitamin D releasing reagent in various concentrations on the other hand. The release of vitamin D binding protein is monitored for 3 min. A candidate vitamin D releasing reagent causing the release of at least […] vitamin D binding protein in the above system is appropriate to meet the minimal requirements for a vitamin D releasing reagent used in the detection of a vitamin D metabolite in a sample of serum or plasma 25-hydroxyvitamin D3. Between each run the 25-hydroxyvitamin D3-coated SA-chip is regenerated by washing it with 10 mM Gly/HCl pH 1.7 for 1 min. As non-specific control a reference flow cell coated with biotin on the same chip was used. The data of the reference flow cell are subtracted from those of the biospecific flow cell. Thus specific data free of non-specific effects are obtained.

Molecule | Concentration of releasing reagent required for release off >95% vitamin D binding protein from 25OH-vitamin D3 [% volume/volume]
CCCC[n+]1ccc(C)cc1.F[B-](F)(F)F [BMP-TFB, 1-Butyl-4-methyl-pyridinium-tetrafluoroborate] | 6
CCCCCCCC[N+]1(C)CCCC1.[Cl-] [MOP-Cl, 1-Methyl-1-octyl-pyrrolidinium-chloride] | 3
CCCC[n+]1cccc(C)c1.N#C[S-] [BMP-SCN, 1-Butyl-3-methyl-pyridinium-thiocyanate] | 6
CCCC[n+]1cccc(C)c1.[Cl-] [BMP-Cl, 1-Butyl-3-methyl-pyridinium-chloride] | 12
CCCCCCCC[n+]1ccccc1.[Cl-] [NOP-Cl, N-Octylpyridinium-chloride] | 3
1-Butyl-3-methyl-imidazolium-octylsulfate [BMI-OSO4] | 0.5
CCCCCC[n+]1ccccc1.[Cl-] [HP-Cl, 1-Hexylpyridinium-chloride] | 6
CCCCn1cc[n+](C)c1.F[B-](F)(F)F [BMI-TFB, 1-Butyl-3-methyl-imidazolium-tetrafluoroborate] | 8
